Reference: publication PMC11945486, “TAS1R2/TAS1R3 Single-Nucleotide Polymorphisms Affect Sweet Taste Receptor Activation by Sweeteners: The SWEET Project” (Nutrients, 2025)
Each block holds one molecule with its values, some of them ahead of it. No end group written: not given here.

Biological target: T1, human TAS1R2-R317P/TAS1R3-WT (Homo sapiens, UniProt Q7RTX0+Q8TE23, R317P)
T1 construct: expressed in transfected cells; host or cells: HEK293T-Gα16gust44
T1 sequence (Q8TE23 20-839 R317P): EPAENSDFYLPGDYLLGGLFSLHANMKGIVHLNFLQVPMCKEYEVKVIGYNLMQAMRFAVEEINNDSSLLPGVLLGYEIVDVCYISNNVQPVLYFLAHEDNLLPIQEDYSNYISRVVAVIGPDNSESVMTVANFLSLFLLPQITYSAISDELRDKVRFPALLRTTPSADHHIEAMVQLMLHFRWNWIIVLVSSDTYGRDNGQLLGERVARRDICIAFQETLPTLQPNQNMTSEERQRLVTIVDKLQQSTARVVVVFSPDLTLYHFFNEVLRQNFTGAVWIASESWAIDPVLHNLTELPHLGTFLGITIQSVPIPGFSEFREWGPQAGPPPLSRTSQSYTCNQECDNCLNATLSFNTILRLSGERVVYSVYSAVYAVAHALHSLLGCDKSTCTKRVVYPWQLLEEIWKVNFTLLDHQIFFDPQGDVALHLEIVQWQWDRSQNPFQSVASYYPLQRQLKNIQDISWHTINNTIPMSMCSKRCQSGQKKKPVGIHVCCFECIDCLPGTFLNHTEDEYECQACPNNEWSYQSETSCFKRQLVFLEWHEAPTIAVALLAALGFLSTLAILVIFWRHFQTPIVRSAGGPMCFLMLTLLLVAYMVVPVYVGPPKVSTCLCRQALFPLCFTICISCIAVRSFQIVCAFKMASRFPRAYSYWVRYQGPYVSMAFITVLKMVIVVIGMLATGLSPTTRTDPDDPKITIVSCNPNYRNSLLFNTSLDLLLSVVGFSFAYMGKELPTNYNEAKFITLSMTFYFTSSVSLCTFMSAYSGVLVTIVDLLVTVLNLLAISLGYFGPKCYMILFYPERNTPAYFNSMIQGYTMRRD
T1 sequence (Q7RTX0 21-852): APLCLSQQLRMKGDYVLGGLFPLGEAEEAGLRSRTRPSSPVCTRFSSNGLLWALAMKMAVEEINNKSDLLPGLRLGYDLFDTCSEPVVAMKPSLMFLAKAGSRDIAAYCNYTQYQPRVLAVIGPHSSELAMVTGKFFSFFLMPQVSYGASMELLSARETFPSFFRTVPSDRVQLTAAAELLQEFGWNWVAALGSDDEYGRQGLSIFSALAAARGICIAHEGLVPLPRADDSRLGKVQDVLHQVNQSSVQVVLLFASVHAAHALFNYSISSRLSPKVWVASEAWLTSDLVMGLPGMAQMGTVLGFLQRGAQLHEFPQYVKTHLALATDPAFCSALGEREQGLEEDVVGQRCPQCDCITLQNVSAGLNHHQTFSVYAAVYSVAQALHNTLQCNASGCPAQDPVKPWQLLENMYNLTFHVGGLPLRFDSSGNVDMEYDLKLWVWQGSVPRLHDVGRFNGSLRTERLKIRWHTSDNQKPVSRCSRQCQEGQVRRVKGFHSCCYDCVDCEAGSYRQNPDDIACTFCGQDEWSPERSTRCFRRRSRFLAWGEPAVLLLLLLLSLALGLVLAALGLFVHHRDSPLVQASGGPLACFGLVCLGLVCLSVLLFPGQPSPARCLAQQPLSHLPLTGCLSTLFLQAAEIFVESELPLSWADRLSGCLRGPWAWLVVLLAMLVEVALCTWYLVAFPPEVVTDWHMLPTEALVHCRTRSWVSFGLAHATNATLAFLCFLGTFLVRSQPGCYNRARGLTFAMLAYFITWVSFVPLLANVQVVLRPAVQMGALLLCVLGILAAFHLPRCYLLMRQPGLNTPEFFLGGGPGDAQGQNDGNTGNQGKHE
Assay: Calcium mobilisation assay, TAS1R2 variant R317P with TAS1R3-WT
Format: cell-based
Settings: for Max ΔF/F0: maximal signal amplitude
Excerpt: The coding sequences for TAS1R2 and TAS1R3 were commercially synthesised, and the human codon was optimised for expression in human cells. The coding sequences of human TAS1R2 and TAS1R3 were subcloned and inserted into the mammalian expression vectors pcDNA6/myc-HisA and pcDNA4/myc-HisA (Invitrogen; Thermo Fisher Scientific; Illkirch, France) between the EcoRI and NotI restriction sites, generating the plasmids pcDNA6-TAS1R2 and pcDNA4-TAS1R3, respectively. To increase protein expression in mammalian cells, an upstream start codon was used, which was a sequence called MAX, corresponding to the QBI SP163 element also described in pcDNA4-HisMax (Invitrogen; Thermo Fisher Scientific; Illkirch, France). To measure the expression level of the receptor by immunohistochemistry, we used the FLAG sequence ([…]) in the C-terminal position, which encodes the FLAG tag epitope. SNP variants of TAS1R2 and TAS1R3 were constructed based on […], respectively, using site-directed mutagenesis (Genewiz; Leipzig, Germany).
The HEK293T cells were kindly provided by Jay P. Slack (Givaudan Flavors Corporation; Cincinnati, OH, USA). HEK293T cells stably transfected with Gα16gust44 [43, 67] were seeded in poly-D-lysine-coated clear-bottom black 96-well plates (0.35 × 10^5 cells/well) in high-glucose DMEM supplemented with 2 mM GlutaMAX, 10% dialysed foetal bovine serum with penicillin/streptomycin and G418 (400 μg/mL) at 37 °C and 6.3% CO2 in a humidified atmosphere as previously reported. […] As a negative control, HEK293T cells were mock-transfected with the empty expression vector. After a further 24 h of incubation, the HEK293T cells were washed with C1 buffer (130 mM NaCl, 5 mM KCl, 10 mM HEPES pH 7.4 and 2 mM CaCl2). The 96-well plates containing the cells were then stimulated with sweet-tasting compounds. […] Different concentration ranges were tested depending on the sweet compound injected. The Ca^2+ changes were expressed as fractional changes in fluorescent light intensity: ΔF/F = (F − F0)/F0, where F was the fluorescent light intensity at each point, and F0 was the value of emitted fluorescent light prior to stimulus application. To calculate dose–response relationships, the changes in fluorescence upon stimulus application were averaged, mock-subtracted and baseline-corrected. The dose–response data obtained were adjusted using a 4-parameter logistic equation. The half-maximal effective concentrations (EC50 values) and maximal signal amplitudes were calculated using SigmaPlot software (version 15.0) (Systat Software; San Jose, CA, USA).
For in vitro calcium mobilisation assay performed on hTAS1R2-SNPs, hTAS1R3-SNPs and mTAS1R3-I60T, 6 to 7 concentrations were tested for each sweet compound, plus buffer alone. All concentration–receptor combinations were measured in duplicate, and each experiment was repeated at least 4 times (8 wells/concentration). Results were expressed for each concentration as ΔF/F mean ± SEM and represented as dose–response curves.

EC50: 35.2 ± 2.2 µM
R1 = Variant EC50/WT EC50: 2.0
Max ΔF/F0: 1.16 ± 0.03
Molecule: C=C(C)[C@@H]1CC=C(/C=N/O)CC1 [Perillartine, perillartine]

EC50: 26.9 ± 0.5 µM
R1 = Variant EC50/WT EC50: 1.6
Max ΔF/F0: 1.19 ± 0.01
Molecule: C=C1C[C@@]23CC[C@H]4[C@@](C)(CCC[C@@]4(C)C(=O)O[C@@H]4O[C@H](CO)[C@@H](O)[C@H](O[C@@H]5O[C@H](CO)[C@@H](O)[C@H](O)[C@H]5O)[C@H]4O[C@@H]4O[C@H](CO)[C@@H](O)[C@H](O)[C@H]4O)[C@@H]2CC[C@]1(O[C@@H]1O[C@H](CO)[C@@H](O)[C@H](O[C@@H]2O[C@H](CO)[C@@H](O)[C@H](O)[C@H]2O)[C@H]1O[C@@H]1O[C@H](CO)[C@@H](O)[C@H](O)[C@H]1O)C3 [Rebaudioside M, rebaudioside M]

EC50: 98 ± 19 µM
R1 = Variant EC50/WT EC50: 1.1
Max ΔF/F0: 0.76 ± 0.06
Molecule: OC[C@H]1O[C@H](O[C@]2(CCl)O[C@H](CCl)[C@@H](O)[C@@H]2O)[C@H](O)[C@@H](O)[C@H]1Cl [Sucralose]

R1 = Variant EC50/WT EC50: 2.5
Max ΔF/F0: 0.91 ± 0.02
Molecule: brazzein (QDKCKKVYENYPVSKCQLANQCNYDCKLDKHARSGECFYDEKRNLQCICDYCEY; ends and bridges not checked; cysteine pairing not given here; UniProt P56552 1-54, looked up) [sweet-tasting protein obtained by recombinant production using the yeast Pichia pastoris]

R1 = Variant EC50/WT EC50: 2.5
Max ΔF/F0: 0.42 ± 0.01
Molecule: thaumatin

EC50: 18.9 ± 0.7 µM
B1: thaumatin (protein)
chain: ATFEIVNRCSYTVWAAASKGDAALDAGGRQLNSGESWTINVEPGTKGGKIWARTDCYFDDSGSGICKTGDCGGLLRCKRFGRPPTTLAEFSLNQYGKDYIDISNIKGFNVPMDFSPTTRGCRGVRCAADIVGQCPAKLKAPGGGCNDACTVFQTSEYCCTTGKCGPTEYSRFFKRLCPDAFSYVLDKPTTVTCPGSSNYRVTFCPTA
modifications: Eight disulfides
notes: sweet-tasting plant protein, E957

Continued, molecule first:

Molecule: CC1=CC(=O)NS(=O)(=O)O1 [Acesulfame K, acesulfame K]
EC50: 685 ± 41 µM
R1 = Variant EC50/WT EC50: 1.0
Max ΔF/F0: 0.42 ± 0.01

Molecule: O=S(=O)(O)NC1CCCCC1 [Cyclamate, cyclamate]
EC50: 2860 ± 62 µM

Molecule: C[C@H](CC[C@@H](O[C@@H]1O[C@H](CO[C@@H]2O[C@H](CO)[C@@H](O)[C@H](O)[C@H]2O)[C@@H](O)[C@H](O)[C@H]1O[C@@H]1O[C@H](CO)[C@@H](O)[C@H](O)[C@H]1O)C(C)(C)O)[C@H]1CC[C@@]2(C)[C@@H]3CC=C4[C@@H](CC[C@H](O[C@@H]5O[C@H](CO[C@@H]6O[C@H](CO)[C@@H](O)[C@H](O)[C@H]6O)[C@@H](O)[C@H](O)[C@H]5O)C4(C)C)[C@]3(C)[C@H](O)C[C@]12C [Mogroside V, mogroside V]
EC50: 27.9 ± 2.5 µM
R1 = Variant EC50/WT EC50: 1.6
Max ΔF/F0: 1.51 ± 0.05

Molecule: COc1ccc(CCC(=O)c2c(O)cc(O[C@@H]3O[C@H](CO)[C@@H](O)[C@H](O)[C@H]3O[C@@H]3O[C@@H](C)[C@H](O)[C@@H](O)[C@H]3O)cc2O)cc1O [NHDC, neohesperidin dihydrochalcone]
EC50: 171 ± 26.2 µM
R1 = Variant EC50/WT EC50: 2.2
Max ΔF/F0: 0.58 ± 0.04

Molecule: COC(=O)[C@H](Cc1ccccc1)NC(=O)[C@H](CC(=O)O)NCCC(C)(C)C [Neotame]
EC50: 0.86 ± 0.16 µM
R1 = Variant EC50/WT EC50: 1.0
Max ΔF/F0: 0.63 ± 0.04
